Results from patent US20060171944A1, “N-formyl peptide receptor mediation of platelet chemotaxis toward injured cells and activation of immune response” (priority 2002, published 2006).

Experiments:
platelet FPR = target: T1, platelet FPR (Homo sapiens, UniProt P21462); experiment: Inhibition of platelet chemotaxis to fMLF in transwell migration assay; format: cell-based; conditions: 1 U and 10 U; non-activated and thrombin-activated platelets; P<0.001
T1 construct: endogenous in cells
T1 sequence (P21462 1-350): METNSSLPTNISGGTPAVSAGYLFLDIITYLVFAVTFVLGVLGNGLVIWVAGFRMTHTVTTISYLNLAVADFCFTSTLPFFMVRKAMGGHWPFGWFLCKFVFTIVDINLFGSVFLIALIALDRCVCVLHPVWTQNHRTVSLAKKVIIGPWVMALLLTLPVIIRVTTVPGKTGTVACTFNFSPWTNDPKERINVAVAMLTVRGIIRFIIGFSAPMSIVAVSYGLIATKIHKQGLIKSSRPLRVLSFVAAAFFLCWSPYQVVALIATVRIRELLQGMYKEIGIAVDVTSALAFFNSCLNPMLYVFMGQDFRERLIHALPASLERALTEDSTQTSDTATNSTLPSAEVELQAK
Experimental: In order to further confirm the specificity of the chemotactic response to N-formyl peptide binding of the FPR, platelet FPR was inhibited by several methods to establish its functional requirement for platelet chemotaxis. Platelets were pretreated with an FPR-specific antibody (α-FPR) capable of blocking the binding of N-formyl peptides to the FPR receptor, prior to the transwell migration assay. […] Additionally, platelets were treated with pertussis toxin, a specific inhibitor of the a-subunit of members of the Gi/o class of G-proteins required for FPR activation.
Platelet migration was assessed using a 96-well ChemoTx® microplate (Neuro Probe, Gaithersburg Md.). For all chemotaxis experiments, different concentrations of stimulants were placed in the bottom wells of the microplate and the filter was positioned (2 μm pore size). The cell suspension was seeded onto the top of the filter (30 μl) and the microplates were incubated for 2 hrs at 37° C. For all chemokinesis experiments, different concentrations of stimulants were placed in the bottom wells of the microplate and the filter was positioned. […] The filter was then carefully removed and the migrated cells were counted by light microscopy. Results are expressed as the mean value (±SD) of total migrated cells, in triplicate samples, and are taken from five experiments independent.

human platelets = experiment: Platelet chemotaxis toward ischemic/reperfused human aortic endothelial cells; format: cell-based; conditions: thrombin-activated platelets
Experimental: Primary human aortic endothelial cells were plated in 0.2% gelatin (Sigma) coated 96-well ChemoTx microplates and allowed to recover for 48 hours. Before the plate was placed in the modular incubator chamber (Billups-Rothenberg Inc.; Del Mar, Calif.) the media was replaced with serum-free media containing 10 mM Hepes. The plate was placed on ice and put into the air tight modular incubator chamber and flushed with a gas mixture of 5% CO2 and 95% N2 for 90 min to induce ischemia. The cell culture was then returned to a normoxic environment of atmospheric air/5% CO2 to simulate reperfusion, and allowed to recover for 4 hours in a cell culture incubator. Chemotaxis experiments were then performed.
In particular, studies were performed to determine whether endogenous danger signals released by tissues undergoing ischemia/reperfusion cell injury induced platelet chemotaxis. Primary human aortic cells, plated in a 96-well ChemoTx plate NeuroProbeInc. Gaithersburg, Md. were placed on ice and put into an air tight modular incubator chamber that was flushed with a gas mixture of 5% CO2 and 95% N2 for 90 min to induce ischemia. The cell culture was then returned to a normoxic environment of atmospheric air/5% CO2 and allowed to recover for 4 hours in a cell culture incubator at 37° C.

With pertussis toxin the “effect of platelet treatment with pertussis toxin on migration to fMLF” value (platelet FPR) was “significantly decreased migration” and the “effect of platelet treatment on chemotaxis toward ischemic aortic endothelial cells” value (human platelets) was “decreased chemotaxis”.
